Source: PMC5069690, “Hepatic 3D spheroid models for the detection and study of compounds with cholestatic liability” (Scientific Reports, 2016)
Where “and” joins values, the source holds several entries; their conditions need not be identical. Equal values may be shown once. Read-outs that look alike come from different tables or passages of the source.

Experiments:
HepaRG spheroids [1] = assay: Repeated-exposure toxicity in HepaRG spheroids with or without BA mixture, cellular ATP content; type: cell-based, human; conditions: for CC50: Homo sapiens, HepaRG, compound alone, read-out: Without BA EC50; for CC50 / Cholestatic Index (EC50 (+BA) / EC50 (-BA)): ATP, one value per independent experiment
Protocol: Cryopreserved differentiated HepaRG cells (Biopredic International, France) were thawed according to the supplier’s instructions. The cells were seeded in Williams’ medium E with GlutaMAX^TM containing the thaw, seed and general purpose additive (ADD670; Biopredic International). The cells were seeded at a density of 2,000 viable cells per well in ULA plates. From day 5, the spheroids were maintained in medium containing 0.5% DMSO, the serum-free induction additive (ADD650, Biopredic International), 20 ng/ml epidermal growth factor and 10 ng/ml hepatocyte growth factor (HumaXpress, Nordic BioSite, Sweden).
(§1) Toxicity studies were started at day 8 and day 5 for PHH and HepaRG spheroids, respectively.

[2] = system: multi-donor PHH spheroids; assay: Repeated-exposure toxicity in multi-donor PHH spheroids with or without BA mixture, albumin secretion; type: cell-based, human; conditions: for EC50: Homo sapiens, 336 h, 14 days repeated exposure
Protocol: The cells were seeded in PHH medium (Williams’ medium E containing 100 units/ml penicillin, 100 μg/ml streptomycin, 2 mM L-glutamine, 10 μg/ml insulin, 5.5 μg/ml transferrin, 6.7 ng/ml sodium selenite, 100 nM dexamethasone) supplemented with 10% fetal bovine serum. […] When PHH had reassembled into compact aggregates (day 4–6 after seeding), spheroids were shifted to serum-free PHH medium. […] The spheroids were maintained in serum-free PHH medium.
as §1

[3] = system: ABCB11, SRXN1, NFE2L2, DR5 expression in PHH spheroids; assay: RT-qPCR gene expression in PHH spheroids; type: cell-based, human; conditions: 8 days
Protocol: (§2) Total RNA was extracted using Qiazol according to the manufacturer’s protocol. RNA was reverse-transcribed into cDNA with SuperScript III reverse transcriptase. RT-qPCR analysis was performed with a 7500 Fast Real-Time PCR system using a TaqMan Universal or SYBR Green mix.

[4] = system: ABCB11, SRXN1, NFE2L2, DR5 expression in HepaRG spheroids; assay: RT-qPCR gene expression in HepaRG spheroids; type: cell-based, human; conditions: 8 days; for DR5 expression / NFE2L2 expression / SRXN1 expression: co-exposure with non-toxic BA mixture compared to compound or BAs alone
Protocol: as §2

PHH spheroids [5] = assay: Repeated-exposure toxicity in PHH spheroids with or without BA mixture, cellular ATP content; conditions: for CC50: Homo sapiens; for CC50 / Cholestatic Index (EC50 (+BA) / EC50 (-BA)): one value per independent experiment; for CIx (mean of the independent experiments): 8 days co-exposure with BAs vs compound alone; for Cholestatic Index (EC50 (+BA) / EC50 (-BA)): ATP;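 as to all read-outs here: primary human hepatocyte spheroids dosed every second day with compound, with or without a bile acid mixture, viability read as cellular ATP by luminescence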
Protocol: Cryopreserved PHH (Bioreclamation IVT, USA) were thawed according to the supplier’s instructions. The cells were seeded in PHH medium (Williams’ medium E containing 100 units/ml penicillin, 100 μg/ml streptomycin, 2 mM L-glutamine, 10 μg/ml insulin, 5.5 μg/ml transferrin, 6.7 ng/ml sodium selenite, 100 nM dexamethasone) supplemented with 10% fetal bovine serum. The cells were seeded at a density of 1,500 viable cells per well in ultra-low attachment (ULA) plates (Corning). When PHH had reassembled into compact aggregates (day 4–6 after seeding), spheroids were shifted to serum-free PHH medium. […] The hepatocytes were derived from 5 male and 5 female donors and were aggregated into 3D microtissues in GravityPLUS™ hanging drop plates and cultivated and assayed in GravityTRAP™ plates. The spheroids were maintained in serum-free PHH medium.
(§5) Stock solutions of the compounds were diluted in culture medium to a maximal final DMSO concentration of 0.3% for PHH spheroids and 0.6% for HepaRG spheroids. Toxicity studies were started at day 8 and day 5 for PHH and HepaRG spheroids, respectively. Spheroids were treated every other day with the compounds in the presence or absence of the BA mixture. Cellular ATP content was determined as a marker of cell viability using the CellTiter-Glo Luminescent Cell Viability Assay (Promega, Sweden). When indicated, albumin concentrations were determined by ELISA (Bethyl laboratories, USA).
(§6) To evaluate the cholestatic risk of the tested compounds we introduced the cholestatic index (CIx). The CIx is defined as the ratio between the EC50-value from co-exposure to a compound and the BA mixture and the EC50-value from exposure to the compound alone.

BSEP = conditions: quoted in the discussion, no reference given; read-out: BSEP inhibition IC50; cited from earlier work
PHH spheroids [6] = assay: Bile acid accumulation (fluorescent taurocholic acid derivative, confocal microscopy) in PHH spheroids; type: cell-based, human; conditions: repeated exposure for 8 days
Protocol: (§3) BA accumulation was assessed with a fluorescently labelled taurocholic acid derivative, tauro-nor-THCA-25-DBD (Genomembrane Company, Ltd, Japan). After 6 days of chlorpromazine exposure, the spheroids were co-exposed to chlorpromazine and 20 μM tauro-nor-THCA-25-DBD for an additional 2 days. Fluorescence was assessed by confocal microscopy (Zeiss LSM 710).

HepaRG spheroids [7] = assay: Bile acid accumulation (fluorescent taurocholic acid derivative, confocal microscopy) in HepaRG spheroids; type: cell-based, human
Protocol: as §3

[8] = system: F-actin cytoskeleton in PHH spheroids; assay: F-actin cytoskeleton integrity (Phalloidin staining) in PHH spheroids; type: cell-based, human; conditions: 8 days
Protocol: (§4) Spheroids were fixed in 4% paraformaldehyde at 4 °C O/N. Immunohistochemistry was performed on cryosections (8 μm) for BSEP (Atlas, Sweden) and MRP2 (Abcam, UK). […] F-actin was visualized using Alexa Fluor 488 Phalloidin. Slides were mounted with ProLong Gold Antifade Mountant with DAPI and fluorescence was assessed by confocal microscopy (Zeiss LSM 710). Surface expression of the BA transporters was quantified using CellProfiler software.

[9] = system: F-actin cytoskeleton in HepaRG spheroids; assay: F-actin cytoskeleton integrity (Phalloidin staining) in HepaRG spheroids; type: cell-based, human; conditions: 8 days
Protocol: as §4

PHH spheroids [10] = assay: Toxicity in PHH spheroids with or without BA mixture, albumin secretion read-out (Supplementary Fig. S2); conditions: 8 days, Supplementary Fig. S2B
Protocol: as §5, §6

[11] = 8 days co-exposure with BAs vs compound alone
[12] = 192 h, 8 days repeated exposure
[13] = 336 h, 14 days repeated exposure
[14] = multi-donor PHH spheroids (10 donors), co-exposure with BA mixture, albumin secretion, read-out: With BA EC50
[15] = multi-donor PHH spheroids (10 donors), compound alone, albumin secretion, read-out: Without BA EC50
[16] = co-exposure with non-toxic BA mixture compared to compound or BAs alone
[17] = 192 h, read-out: Without BA EC50, PHH spheroids, 8 days repeated exposure, compound alone, ATP
[18] = 336 h, read-out: Without BA EC50, PHH spheroids, 14 days repeated exposure, compound alone, ATP

| SMILES | CIx (mean of the independent experiments) (HepaRG spheroids [1]; [11]) | CC50 (HepaRG spheroids [1]; [12]) | CC50 (HepaRG spheroids [1]; [13]) | EC50 [2, 14] | EC50 [2, 15] | DR5 expression [3, 16] | NFE2L2 expression [3, 16] | SRXN1 expression [3, 16] | DR5 expression [4] | NFE2L2 expression [4] | SRXN1 expression [4] | CC50 (PHH spheroids [5]; [17]) | CC50 (PHH spheroids [5]; [18]) | CIx (mean of the independent experiments) (PHH spheroids [5]; PHH spheroids) | Cholestatic risk classification based on CIx (HepaRG spheroids [1]; 8 days) | Cholestatic Index (EC50 (+BA) / EC50 (-BA)) (HepaRG spheroids [1]; 8 days) | Cholestatic Index (EC50 (+BA) / EC50 (-BA)) (HepaRG spheroids [1]; 14 days) | Cholestatic Index (EC50 (+BA) / EC50 (-BA)) ([2]; both, human, 14 days) | IC50 (BSEP) | Cholestatic risk classification based on CIx (PHH spheroids [5]; PHH spheroids, 8 days) | also measured |
| --- | --- | --- | --- | --- | --- | --- | --- | --- | --- | --- | --- | --- | --- | --- | --- | --- | --- | --- | --- | --- | --- |
| CC(=O)Nc1ccc(O)cc1 [Acetaminophen, acetaminophen] | 1.02 ± 0.03 | 1600 µM | 1000 µM | 1830 µM | 1910 µM | no induction of DR5 | no changes in SRXN1 or NFE2L2 expression | no changes in SRXN1 or NFE2L2 expression | no induction of DR5 | no changes in SRXN1 or NFE2L2 expression | no changes in SRXN1 or NFE2L2 expression | 1090 µM | 804 µM | 1.89 ± 0.37 |  |  |  |  |  |  |  |
| COc1ccccc1Oc1c(NS(=O)(=O)c2ccc(C(C)(C)C)cc2)nc(-c2ncccn2)nc1OCCO [Bosentan, bosentan] | 0.60 ± 0.06 | 187 µM | 115 µM | 54 µM | 102 µM |  |  |  |  |  |  | 66 µM | 55 µM | 0.19 ± 0.12 | cholestatic risk (compounds with a CIx ≤ 0.80 were considered to have cholestatic risk) | 0.63 and 0.54 and 0.64 | 0.61 and 0.50 and 0.48 | 0.53 | 38.1 µM | cholestatic risk (compounds with a CIx ≤ 0.80 were considered to have cholestatic risk) | Cholestatic Index (EC50 (+BA) / EC50 (-BA)) (PHH spheroids [5]; PHH spheroids, 14 days): 0.11 and 0.12 and 0.16 |
| CN(C)CCCN1c2ccccc2Sc2ccc(Cl)cc21 [Chlorpromazine, chlorpromazine] | 0.87 ± 0.06 | 17 µM | 14 µM | 1.7 µM | 4.5 µM | significantly induced DR5 | significantly further increased NFE2L2 expression | significant induction of SRXN1 | significantly induced DR5 | significantly further increased NFE2L2 expression | significant induction of SRXN1 | 14 µM | 12 µM | 0.90 ± 0.12 | low cholestatic risk (Compounds with a CIx ≥ 0.80) | 0.88 and 0.81 and 0.93 | 0.63 and 0.65 and 0.69 | 0.38 | 148 µM | low cholestatic risk (Compounds with a CIx ≥ 0.80) | Cholestatic risk classification based on CIx (HepaRG spheroids [1]; 14 days): cholestatic risk (compounds with a CIx ≤ 0.80 were considered to have cholestatic risk); CIx (mean of the independent experiments) (HepaRG spheroids [1]; 14 days of repeated exposure): 0.66 ± 0.03; intracellular BA accumulation (tauro-nor-THCA-24-DBD) (PHH spheroids [6]): cytoplasmic accumulation; toxicity to the spheroids (HepaRG spheroids [7]; 10 μM, 8 days): toxic; intracellular BA accumulation (tauro-nor-THCA-24-DBD) (HepaRG spheroids [7]; repeated exposure for 8 days): cytoplasmic accumulation; expression of ABCB11, encoding BSEP ([3]; normalized to GAPDH): inhibited the expression of ABCB11; DR5 expression ([3]; toxic concentration alone (80x BA; 12.5 µM CPZ), Supplementary Fig. S3): no change in DR5 expression; expression of ABCB11, encoding BSEP ([4]; normalized to GAPDH): inhibited the expression of ABCB11; F-actin expression and integrity [8]: reduced F-actin expression and disrupted its integrity; F-actin expression and integrity [9]: reduced F-actin expression and disrupted its integrity; Cholestatic Index (EC50 (+BA) / EC50 (-BA)) (PHH spheroids [5]; PHH spheroids, 8 days): 0.85 and 1.07 and 0.83; CIx (PHH spheroids [5]; PHH spheroids, 8 days, cellular ATP content read-out, Supplementary Fig. S2A): 0.75; Cholestatic risk classification based on CIx (PHH spheroids [5]; PHH spheroids, 14 days): cholestatic risk (compounds with a CIx ≤ 0.80 were considered to have cholestatic risk); Cholestatic Index (EC50 (+BA) / EC50 (-BA)) (PHH spheroids [5]; PHH spheroids, 14 days): 0.80 and 0.71 and 0.77; CIx (PHH spheroids [10]): 0.69 |
| CCC(=O)O[C@H]1[C@H](O[C@@H]2[C@@H](C)[C@H](O[C@H]3C[C@@](C)(OC)[C@@H](O)[C@H](C)O3)[C@@H](C)C(=O)O[C@H](CC)[C@@](C)(O)[C@H](O)[C@@H](C)C(=O)[C@H](C)C[C@@]2(C)O)O[C@H](C)C[C@@H]1N(C)C [Erythromycin estolate, erythromycin estolate] |  |  |  | 18 µM | 28 µM |  |  |  |  |  |  |  |  |  |  |  |  |  |  |  | Cholestatic Index (EC50 (+BA) / EC50 (-BA)) ([2]; multi-donor PHH spheroids (10 donors), 14 days, albumin secretion): 0.64; Cholestatic risk classification based on CIx ([2]; multi-donor PHH spheroids, 14 days): cholestatic risk (compounds with a CIx ≤ 0.80 were considered to have cholestatic risk) |
